According to the NIST ThermoML archive (doi:10.1016/j.jct.2004.01.006):
“And” between values parts separate entries of the source, which are not always exact repeats. Equal entries are not always repeated. Numbers after ± are expanded uncertainties.

Assay: molar heat capacity at constant pressure
Settings: 101.33 kPa

O=Cc1ccc(Cl)cc1Cl [2,4-dichlorobenzaldehyde]
Settings | molar heat capacity at constant pressure
79.17 K, Crystal | 71.3 ± 1.8 J/K/mol
80 K, Crystal | 71.33 ± 1.8 J/K/mol
81.36 K, Crystal | 72.02 ± 1.8 J/K/mol
83.11 K, Crystal | 72.63 ± 1.9 J/K/mol
85 K, Crystal | 73.98 ± 1.9 J/K/mol
85.3 K, Crystal | 73.72 ± 1.9 J/K/mol
87.49 K, Crystal | 74.91 ± 1.9 J/K/mol
89.6 K, Crystal | 76.29 ± 1.9 J/K/mol
90 K, Crystal | 76.75 ± 2 J/K/mol
91.66 K, Crystal | 77.86 ± 2 J/K/mol
93.69 K, Crystal | 79.02 ± 2.1 J/K/mol
95 K, Crystal | 79.6 ± 2.1 J/K/mol
95.68 K, Crystal | 80.2 ± 2.1 J/K/mol
97.64 K, Crystal | 81.37 ± 2.1 J/K/mol
99.56 K, Crystal | 82.67 ± 2.1 J/K/mol
100 K, Crystal | 82.48 ± 2.1 J/K/mol
101.45 K, Crystal | 83.56 ± 2.1 J/K/mol
103.32 K, Crystal | 84.39 ± 2.2 J/K/mol
105 K, Crystal | 85.38 ± 2.2 J/K/mol
105.16 K, Crystal | 85.43 ± 2.2 J/K/mol
106.97 K, Crystal | 86.65 ± 2.2 J/K/mol
108.76 K, Crystal | 87.94 ± 2.2 J/K/mol
110 K, Crystal | 88.26 ± 2.2 J/K/mol
110.53 K, Crystal | 88.83 ± 2.2 J/K/mol
112.28 K, Crystal | 89.53 ± 2.2 J/K/mol
114 K, Crystal | 90.58 ± 2.3 J/K/mol
115 K, Crystal | 91.11 ± 2.3 J/K/mol
115.71 K, Crystal | 91.48 ± 2.3 J/K/mol
117.4 K, Crystal | 92.47 ± 2.3 J/K/mol
119.07 K, Crystal | 93.42 ± 2.3 J/K/mol
120 K, Crystal | 93.92 ± 2.3 J/K/mol
120.73 K, Crystal | 94.06 ± 2.3 J/K/mol
122.36 K, Crystal | 94.81 ± 2.3 J/K/mol
123.99 K, Crystal | 95.87 ± 2.3 J/K/mol
125 K, Crystal | 96.69 ± 2.3 J/K/mol
125.6 K, Crystal | 96.98 ± 2.4 J/K/mol
127.19 K, Crystal | 97.8 ± 2.4 J/K/mol
128.78 K, Crystal | 98.46 ± 2.4 J/K/mol
130 K, Crystal | 99.4 ± 2.4 J/K/mol
130.34 K, Crystal | 99.55 ± 2.4 J/K/mol
131.9 K, Crystal | 100.68 ± 2.4 J/K/mol
133.44 K, Crystal | 101.08 ± 2.4 J/K/mol
134.97 K, Crystal | 101.62 ± 2.4 J/K/mol
135 K, Crystal | 102.07 ± 2.4 J/K/mol
136.49 K, Crystal | 102.52 ± 2.4 J/K/mol
138 K, Crystal | 103.61 ± 2.5 J/K/mol
139.5 K, Crystal | 104.14 ± 2.5 J/K/mol
140 K, Crystal | 104.7 ± 2.5 J/K/mol
140.99 K, Crystal | 104.87 ± 2.5 J/K/mol
142.47 K, Crystal | 105.48 ± 2.5 J/K/mol
143.93 K, Crystal | 106.66 ± 2.5 J/K/mol
145 K, Crystal | 107.29 ± 2.5 J/K/mol
145.39 K, Crystal | 107.75 ± 2.5 J/K/mol
146.84 K, Crystal | 108.26 ± 2.5 J/K/mol
148.28 K, Crystal | 109.04 ± 2.5 J/K/mol
149.71 K, Crystal | 109.83 ± 2.6 J/K/mol
150 K, Crystal | 109.85 ± 2.6 J/K/mol
151.13 K, Crystal | 111.12 ± 2.6 J/K/mol
152.54 K, Crystal | 111.74 ± 2.6 J/K/mol
153.94 K, Crystal | 112.08 ± 2.6 J/K/mol
155 K, Crystal | 112.39 ± 2.6 J/K/mol
155.34 K, Crystal | 112.93 ± 2.6 J/K/mol
157.51 K, Crystal | 113.86 ± 2.6 J/K/mol
160 K, Crystal | 114.92 ± 2.6 J/K/mol
160.42 K, Crystal | 115.39 ± 2.6 J/K/mol
163.32 K, Crystal | 116.39 ± 2.7 J/K/mol
165 K, Crystal | 117.44 ± 2.7 J/K/mol
166.18 K, Crystal | 117.94 ± 2.7 J/K/mol
169.01 K, Crystal | 119.36 ± 2.7 J/K/mol
170 K, Crystal | 119.97 ± 2.7 J/K/mol
171.81 K, Crystal | 121.11 ± 2.7 J/K/mol
174.59 K, Crystal | 122.69 ± 2.8 J/K/mol
175 K, Crystal | 122.52 ± 2.8 J/K/mol
177.33 K, Crystal | 124.06 ± 2.8 J/K/mol
180 K, Crystal | 125.09 ± 2.8 J/K/mol
180.05 K, Crystal | 125.43 ± 2.8 J/K/mol
182.75 K, Crystal | 126.44 ± 2.8 J/K/mol
185 K, Crystal | 127.68 ± 2.8 J/K/mol
185.43 K, Crystal | 127.77 ± 2.8 J/K/mol
190 K, Crystal | 130.3 ± 2.9 J/K/mol
190.71 K, Crystal | 130.68 ± 2.9 J/K/mol
193.31 K, Crystal | 131.82 ± 2.9 J/K/mol
195 K, Crystal | 133 ± 2.9 J/K/mol
195.91 K, Crystal | 133.03 ± 2.9 J/K/mol
198.41 K, Crystal | 134.61 ± 3 J/K/mol
200 K, Crystal | 135.65 ± 3 J/K/mol
200.76 K, Crystal | 135.6 ± 3 J/K/mol
203.12 K, Crystal | 136.47 ± 3 J/K/mol
205 K, Crystal | 138.37 ± 3 J/K/mol
205.61 K, Crystal | 137.67 ± 3 J/K/mol
208.11 K, Crystal | 139.14 ± 3 J/K/mol
210 K, Crystal | 141.12 ± 3.1 J/K/mol
210.61 K, Crystal | 140.62 ± 3.1 J/K/mol
213.05 K, Crystal | 142.39 ± 3.1 J/K/mol
215 K, Crystal | 143.89 ± 3.1 J/K/mol
215.46 K, Crystal | 143.66 ± 3.1 J/K/mol
217.88 K, Crystal | 145.35 ± 3.1 J/K/mol
220 K, Crystal | 146.69 ± 3.2 J/K/mol
220.3 K, Crystal | 147.01 ± 3.2 J/K/mol
222.73 K, Crystal | 148.63 ± 3.2 J/K/mol
225 K, Crystal | 149.5 ± 3.2 J/K/mol
225.15 K, Crystal | 150.44 ± 3.2 J/K/mol
227.5 K, Crystal | 152.1 ± 3.2 J/K/mol
229.92 K, Crystal | 153.24 ± 3.3 J/K/mol
230 K, Crystal | 152.31 ± 3.2 J/K/mol
232.35 K, Crystal | 154.92 ± 3.3 J/K/mol
234.92 K, Crystal | 156.38 ± 3.3 J/K/mol
235 K, Crystal | 155.12 ± 3.3 J/K/mol
237.8 K, Crystal | 157.76 ± 3.3 J/K/mol
240 K, Crystal | 157.9 ± 3.3 J/K/mol
240.46 K, Crystal | 159.08 ± 3.3 J/K/mol
242.88 K, Crystal | 160.14 ± 3.4 J/K/mol
245 K, Crystal | 160.64 ± 3.4 J/K/mol
245.08 K, Crystal | 161.43 ± 3.4 J/K/mol
247.12 K, Crystal | 162.34 ± 3.4 J/K/mol
249.24 K, Crystal | 163.27 ± 3.4 J/K/mol
250 K, Crystal | 163.39 ± 3.4 J/K/mol
251.44 K, Crystal | 164.55 ± 3.4 J/K/mol
253.56 K, Crystal | 165.45 ± 3.5 J/K/mol
255 K, Crystal | 166.07 ± 3.5 J/K/mol
255.68 K, Crystal | 166.2 ± 3.5 J/K/mol
257.73 K, Crystal | 166.92 ± 3.5 J/K/mol
259.85 K, Crystal | 167.67 ± 3.5 J/K/mol
260 K, Crystal | 168.69 ± 3.5 J/K/mol
261.89 K, Crystal | 168.77 ± 3.5 J/K/mol
264.01 K, Crystal | 169.61 ± 3.5 J/K/mol
265 K, Crystal | 171.25 ± 3.5 J/K/mol
266.06 K, Crystal | 170.55 ± 3.5 J/K/mol
268.03 K, Crystal | 171.61 ± 3.5 J/K/mol
270 K, Crystal | 173.73 ± 3.6 J/K/mol
270.08 K, Crystal | 172.38 ± 3.6 J/K/mol
272.05 K, Crystal | 173.75 ± 3.6 J/K/mol
274.01 K, Crystal | 174.95 ± 3.6 J/K/mol
275 K, Crystal | 176.14 ± 3.6 J/K/mol
275.99 K, Crystal | 175.77 ± 3.6 J/K/mol
277.95 K, Crystal | 176.86 ± 3.6 J/K/mol
279.85 K, Crystal | 177.84 ± 3.6 J/K/mol
280 K, Crystal | 178.48 ± 3.7 J/K/mol
281.74 K, Crystal | 178.91 ± 3.7 J/K/mol
283.64 K, Crystal | 179.72 ± 3.7 J/K/mol
285 K, Crystal | 180.75 ± 3.7 J/K/mol
285.53 K, Crystal | 180.86 ± 3.7 J/K/mol
287.42 K, Crystal | 181.6 ± 3.7 J/K/mol
289.24 K, Crystal | 182.74 ± 3.7 J/K/mol
290 K, Crystal | 182.93 ± 3.7 J/K/mol
291.06 K, Crystal | 183.73 ± 3.7 J/K/mol
292.88 K, Crystal | 184.79 ± 3.8 J/K/mol
294.62 K, Crystal | 185.72 ± 3.8 J/K/mol
295 K, Crystal | 185.12 ± 3.8 J/K/mol
296.36 K, Crystal | 186.66 ± 3.8 J/K/mol
298.03 K, Crystal | 187.45 ± 3.8 J/K/mol
298.15 K, Crystal | 186.47 ± 3.8 J/K/mol
299.7 K, Crystal | 187.95 ± 3.8 J/K/mol
301.36 K, Crystal | 188.77 ± 3.8 J/K/mol
303.86 K, Crystal | 189.94 ± 3.8 J/K/mol
305 K, Crystal | 189.4 ± 3.8 J/K/mol
306.12 K, Crystal | 191.07 ± 3.9 J/K/mol
308.39 K, Crystal | 191.8 ± 3.9 J/K/mol
310 K, Crystal | 191.58 ± 3.9 J/K/mol
310.67 K, Crystal | 192.53 ± 3.9 J/K/mol
312.95 K, Crystal | 193.73 ± 3.9 J/K/mol
315 K, Crystal | 193.86 ± 3.9 J/K/mol
319.7 K, Crystal | 196.52 ± 3.9 J/K/mol
320 K, Crystal | 196.27 ± 3.9 J/K/mol
321.89 K, Crystal | 197.35 ± 4 J/K/mol
324.09 K, Crystal | 198.21 ± 4 J/K/mol
325 K, Crystal | 198.9 ± 4 J/K/mol
326.21 K, Crystal | 199.12 ± 4 J/K/mol
328.41 K, Crystal | 199.91 ± 4 J/K/mol
330 K, Crystal | 201.83 ± 4 J/K/mol
330.53 K, Crystal | 200.78 ± 4 J/K/mol
332.65 K, Crystal | 201.79 ± 4 J/K/mol
334.67 K, Crystal | 202.59 ± 4 J/K/mol
335 K, Crystal | 205.15 ± 4.1 J/K/mol
336.74 K, Crystal | 203.39 ± 4.1 J/K/mol
338.77 K, Crystal | 205.71 ± 4.1 J/K/mol
340 K, Crystal | 208.96 ± 4.1 J/K/mol
350 K, Liquid | 208.08 ± 2.1 J/K/mol
350.08 K, Liquid | 208.1 ± 2.1 J/K/mol
351.82 K, Liquid | 208.76 ± 2.1 J/K/mol
353.56 K, Liquid | 209.27 ± 2.1 J/K/mol
355 K, Liquid | 209.85 ± 2.1 J/K/mol
355.74 K, Liquid | 210.16 ± 2.1 J/K/mol
357.14 K, Liquid | 210.51 ± 2.1 J/K/mol
358.64 K, Liquid | 210.8 ± 2.1 J/K/mol
360 K, Liquid | 211.16 ± 2.1 J/K/mol
361.51 K, Liquid | 211.51 ± 2.1 J/K/mol
362.95 K, Liquid | 211.74 ± 2.1 J/K/mol
364.32 K, Liquid | 212.33 ± 2.1 J/K/mol
365 K, Liquid | 212.44 ± 2.1 J/K/mol
365.61 K, Liquid | 212.74 ± 2.1 J/K/mol
366.82 K, Liquid | 213.06 ± 2.1 J/K/mol
367.95 K, Liquid | 213.48 ± 2.1 J/K/mol
369.01 K, Liquid | 213.84 ± 2.1 J/K/mol
369.7 K, Liquid | 214.36 ± 2.1 J/K/mol
370 K, Liquid | 214.39 ± 2.1 J/K/mol and 214.31 ± 2.1 J/K/mol
370.76 K, Liquid | 214.45 ± 2.1 J/K/mol
371.51 K, Liquid | 214.51 ± 2.1 J/K/mol and 214.66 ± 2.1 J/K/mol
